As a reminder, the EC50 is the midpoint of the concentration-response curve.

Numbered stars: 1 amine (or outer) side, 2 acyl side, 3 side chain; on linkers, the order of the positions; unused ones are H or OH. Side chains are listed from the residue outwards. Peptide text beside a SMILES is read from it. * marks the point of attachment. γGlu = O=C(O)[C@H](CCC(=O)[*:2])N[*:1]; Palmitoyl = CCCCCCCCCCCCCCCC(=O)*; Ahx = NCCCCCC(=O)O

Holding throughout (experiment): cAMP activity assay in assay medium (assay 1)
Common to all, as to format: cell-based

One test has as its target T1, Human GIPr (Homo sapiens, UniProt P48546).
T1 construct: expressed in transfected cells
T1 sequence (P48546 22-466): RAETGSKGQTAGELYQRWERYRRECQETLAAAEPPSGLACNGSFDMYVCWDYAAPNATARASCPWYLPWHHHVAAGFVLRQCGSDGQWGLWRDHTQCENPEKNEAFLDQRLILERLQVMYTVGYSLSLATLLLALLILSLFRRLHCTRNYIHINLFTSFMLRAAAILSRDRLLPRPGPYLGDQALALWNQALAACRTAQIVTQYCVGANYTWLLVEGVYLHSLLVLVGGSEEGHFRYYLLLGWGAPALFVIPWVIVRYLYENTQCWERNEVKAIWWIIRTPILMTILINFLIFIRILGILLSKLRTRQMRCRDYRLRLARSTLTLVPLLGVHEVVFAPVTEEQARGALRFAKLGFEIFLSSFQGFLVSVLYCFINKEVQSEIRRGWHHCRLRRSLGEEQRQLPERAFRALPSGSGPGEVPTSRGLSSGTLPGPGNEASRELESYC
As to conditions: assay medium; Table 4; read-out: hGIPR EC50. The source says: (§1) Biological Activity of Peptides in Cell-Based cAMP Activity Assay (Assay 1):
(§2) All sample dilutions were made in duplicate.

For the next test, the target named is T2, Human GlucR (Homo sapiens, UniProt P47871).
T2 construct: expressed in transfected cells
As to conditions: assay medium; Table 4; read-out: hGlucR EC50.
Excerpt: as §1, §2

Another test has as its target Human GLP1R (Homo sapiens, UniProt P43220). Also on record: expressed in transfected cells. As to conditions: assay medium; Table 4; read-out: hGLP1R EC50.
Excerpt: as §1, §2

T2 sequence (P47871 26-477): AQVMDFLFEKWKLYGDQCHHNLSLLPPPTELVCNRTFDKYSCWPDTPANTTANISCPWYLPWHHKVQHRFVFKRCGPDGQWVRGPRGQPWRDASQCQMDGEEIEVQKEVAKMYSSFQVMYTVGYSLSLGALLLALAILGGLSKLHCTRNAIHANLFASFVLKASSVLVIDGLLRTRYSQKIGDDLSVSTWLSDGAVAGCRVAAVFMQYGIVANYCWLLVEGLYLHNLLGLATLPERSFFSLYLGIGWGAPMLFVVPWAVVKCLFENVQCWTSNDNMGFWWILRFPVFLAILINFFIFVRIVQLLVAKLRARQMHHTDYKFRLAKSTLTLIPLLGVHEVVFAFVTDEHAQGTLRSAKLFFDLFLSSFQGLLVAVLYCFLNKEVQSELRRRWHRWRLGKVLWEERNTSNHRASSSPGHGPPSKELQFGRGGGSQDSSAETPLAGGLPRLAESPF
Human GLP1R, sequence (P43220 24-463): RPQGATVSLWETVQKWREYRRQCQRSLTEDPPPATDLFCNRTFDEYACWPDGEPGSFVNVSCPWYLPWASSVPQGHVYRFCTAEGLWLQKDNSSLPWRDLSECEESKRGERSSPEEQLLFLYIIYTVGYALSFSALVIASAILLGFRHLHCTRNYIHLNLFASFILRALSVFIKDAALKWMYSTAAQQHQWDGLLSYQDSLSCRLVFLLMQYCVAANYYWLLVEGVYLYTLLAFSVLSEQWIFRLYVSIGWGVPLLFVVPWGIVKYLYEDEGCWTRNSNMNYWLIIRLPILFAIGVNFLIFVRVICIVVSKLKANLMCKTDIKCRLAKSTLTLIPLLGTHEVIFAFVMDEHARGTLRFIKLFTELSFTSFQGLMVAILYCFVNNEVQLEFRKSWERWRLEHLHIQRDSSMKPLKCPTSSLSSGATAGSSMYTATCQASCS

For the compound `CCCCCCCCCCCCCCCC(=O)N[C@@H](CCC(=O)NCCCC[C@H](NC(=O)[C@H](CO)NC(=O)[C@H](CC(=O)O)NC(=O)[C@H](CC(C)C)NC(=O)[C@H](Cc1ccc(O)cc1)NC(=O)[C@H](CCCCN)NC(=O)[C@H](CO)NC(=O)[C@H](Cc1ccc(O)cc1)NC(=O)[C@H](CC(=O)O)NC(=O)[C@H](CO)NC(=O)[C@@H](NC(=O)[C@H](Cc1ccccc1)NC(=O)[C@@H](NC(=O)CNC(=O)[C@H](CCC(=O)O)NC(=O)CNC(=O)[C@@H](N)Cc1c[nH]cn1)[C@@H](C)O)[C@@H](C)O)C(=O)N[C@@H](CCCNC(=N)N)C(=O)N[C@@H](C)C(=O)N[C@@H](CCC(=O)O)C(=O)N[C@@H](CC(=O)O)C(=O)N[C@@H](Cc1ccccc1)C(=O)N[C@H](C(=O)N[C@@H](CCC(=O)O)C(=O)N[C@@H](Cc1c[nH]c2ccccc12)C(=O)N[C@@H](CC(C)C)C(=O)N[C@H](C(=O)N[C@@H](C)C(=O)NCC(=O)NCC(N)=O)C(C)C)C(C)C)C(=O)O` [g681] (H-HGEGTFTSDYSKYLDSK([γGlu-Palmitoyl])RAEDFVEWLVAGG-NH2; N-terminus assumed), the EC50 at Human GIPr came to 124 nM; at Human GlucR, 39.9 nM; at Human GLP1R it was 0.283 nM.
In the same order, the values of `CCCCCCCCCCCCCCCC(=O)NCCCCCC(=O)NCCCC[C@H](NC(=O)[C@H](CO)NC(=O)[C@H](CC(=O)O)NC(=O)[C@H](CC(C)C)NC(=O)[C@H](Cc1ccc(O)cc1)NC(=O)[C@H](CCC(=O)O)NC(=O)[C@H](CO)NC(=O)[C@H](Cc1ccc(O)cc1)NC(=O)[C@H](CC(=O)O)NC(=O)[C@H](CO)NC(=O)[C@@H](NC(=O)[C@H](Cc1ccccc1)NC(=O)[C@@H](NC(=O)CNC(=O)[C@H](CCC(N)=O)NC(=O)CNC(=O)[C@@H](N)Cc1c[nH]cn1)[C@@H](C)O)[C@@H](C)O)C(=O)N[C@@H](CCCNC(=N)N)C(=O)N[C@@H](C)C(=O)N[C@@H](CCCNC(=N)N)C(=O)N[C@@H](CC(=O)O)C(=O)N[C@@H](Cc1ccccc1)C(=O)N[C@H](C(=O)N[C@@H](C)C(=O)N[C@@H](Cc1c[nH]c2ccccc12)C(=O)N[C@@H](CC(C)C)C(=O)N[C@@H](CCC(=O)O)C(=O)N[C@@H](CCCNC(=N)N)C(=O)NCC(=O)NCC(N)=O)C(C)C` [g684] (H-HGQGTFTSDYSEYLDSK([Ahx-Palmitoyl])RARDFVAWLERGG-NH2; N-terminus assumed) are 146 nM, 0.164 nM and 0.0151 nM.
In the same order, the values of `CCCCCCCCCCCCCCCC(=O)N[C@@H](CCC(=O)NCCCC[C@H](NC(=O)[C@H](CC(=O)O)NC(=O)[C@H](CO)NC(=O)[C@@H](NC(=O)[C@H](Cc1ccccc1)NC(=O)[C@@H](NC(=O)CNC(=O)[C@H](CCC(N)=O)NC(=O)[C@H](CO)NC(=O)[C@@H](N)Cc1c[nH]cn1)[C@@H](C)O)[C@@H](C)O)C(=O)N[C@@H](CO)C(=O)N[C@@H](CCCCN)C(=O)N[C@@H](Cc1ccc(O)cc1)C(=O)N[C@@H](CC(C)C)C(=O)N[C@@H](CC(=O)O)C(=O)N[C@@H](CO)C(=O)N[C@@H](CCCNC(=N)N)C(=O)N[C@@H](CCCNC(=N)N)C(=O)N[C@@H](C)C(=O)N[C@@H](CCC(N)=O)C(=O)N[C@@H](CC(=O)O)C(=O)N[C@@H](Cc1ccccc1)C(=O)N[C@H](C(=O)N[C@@H](CCC(N)=O)C(=O)N[C@@H](Cc1c[nH]c2ccccc12)C(=O)N[C@@H](CC(C)C)C(=O)N[C@H](C(=O)N[C@@H](C)C(=O)NCC(=O)NCC(N)=O)C(C)C)C(C)C)C(=O)O` [g715] (H-HSQGTFTSDK([γGlu-Palmitoyl])SKYLDSRRAQDFVQWLVAGG-NH2; N-terminus assumed) are 0.998 nM, 0.00253 nM and 0.0204 nM.
Taken in the same sequence, the figures for `CCCCCCCCCCCCCCCC(=O)N[C@@H](CCC(=O)NCCCC[C@H](NC(=O)[C@H](Cc1ccc(O)cc1)NC(=O)[C@H](CC(=O)O)NC(=O)[C@H](CO)NC(=O)[C@@H](NC(=O)[C@H](Cc1ccccc1)NC(=O)[C@@H](NC(=O)CNC(=O)[C@H](CCC(N)=O)NC(=O)[C@H](CO)NC(=O)[C@@H](N)Cc1c[nH]cn1)[C@@H](C)O)[C@@H](C)O)C(=O)N[C@@H](CCCCN)C(=O)N[C@@H](Cc1ccc(O)cc1)C(=O)N[C@@H](CC(C)C)C(=O)N[C@@H](CC(=O)O)C(=O)N[C@@H](CO)C(=O)N[C@@H](CCCNC(=N)N)C(=O)N[C@@H](CCCNC(=N)N)C(=O)N[C@@H](C)C(=O)N[C@@H](CCC(N)=O)C(=O)N[C@@H](CC(=O)O)C(=O)N[C@@H](Cc1ccccc1)C(=O)N[C@H](C(=O)N[C@@H](CCC(N)=O)C(=O)N[C@@H](Cc1c[nH]c2ccccc12)C(=O)N[C@@H](CC(C)C)C(=O)N[C@H](C(=O)N[C@@H](C)C(=O)NCC(=O)NCC(N)=O)C(C)C)C(C)C)C(=O)O` [g716] (H-HSQGTFTSDYK([γGlu-Palmitoyl])KYLDSRRAQDFVQWLVAGG-NH2; N-terminus assumed) were 11.8 nM, 2.46 nM and 12.9 nM.
For the compound `CCCCCCCCCCCCCCCC(=O)N[C@@H](CCC(=O)NCCCC[C@H](NC(=O)[C@H](CO)NC(=O)[C@H](CC(=O)O)NC(=O)[C@H](CC(C)C)NC(=O)[C@H](Cc1ccc(O)cc1)NC(=O)[C@H](CCC(=O)O)NC(=O)[C@H](CO)NC(=O)[C@H](Cc1ccc(O)cc1)NC(=O)[C@H](CC(=O)O)NC(=O)[C@H](CO)NC(=O)[C@@H](NC(=O)[C@H](Cc1ccccc1)NC(=O)[C@@H](NC(=O)CNC(=O)[C@H](CCC(N)=O)NC(=O)CNC(=O)[C@@H](N)Cc1c[nH]cn1)[C@@H](C)O)[C@@H](C)O)C(=O)N[C@@H](CCCNC(=N)N)C(=O)N[C@@H](C)C(=O)N[C@@H](CCCNC(=N)N)C(=O)N[C@@H](CC(=O)O)C(=O)N[C@@H](Cc1ccccc1)C(=O)N[C@H](C(=O)N[C@@H](C)C(=O)N[C@@H](Cc1c[nH]c2ccccc12)C(=O)N[C@@H](CC(C)C)C(=O)N[C@@H](CCC(=O)O)C(=O)N[C@@H](CCCNC(=N)N)C(=O)NCC(=O)NCC(N)=O)C(C)C)C(=O)O` [g721] (H-HGQGTFTSDYSEYLDSK([γGlu-Palmitoyl])RARDFVAWLERGG-NH2; N-terminus assumed), the figures for the EC50 on Human GIPr, at Human GlucR and on Human GLP1R were 979 nM, 3.23 nM and 0.411 nM, respectively.
In the same order, the values of `CCCCCCCCCCCCCCCC(=O)N[C@@H](CCC(=O)NCCCC[C@H](NC(=O)[C@H](CO)NC(=O)[C@H](CC(=O)O)NC(=O)[C@H](CC(C)C)NC(=O)[C@H](Cc1ccc(O)cc1)NC(=O)[C@H](CCC(=O)O)NC(=O)[C@H](CO)NC(=O)[C@H](Cc1ccc(O)cc1)NC(=O)[C@H](CC(=O)O)NC(=O)[C@H](CO)NC(=O)[C@@H](NC(=O)[C@H](Cc1ccccc1)NC(=O)[C@@H](NC(=O)CNC(=O)[C@H](CCC(N)=O)NC(=O)CNC(=O)[C@@H](N)Cc1c[nH]cn1)[C@@H](C)O)[C@@H](C)O)C(=O)N[C@@H](CCCNC(=N)N)C(=O)N[C@@H](C)C(=O)N[C@@H](C)C(=O)N[C@@H](CC(=O)O)C(=O)N[C@@H](Cc1ccccc1)C(=O)N[C@H](C(=O)N[C@@H](C)C(=O)N[C@@H](Cc1c[nH]c2ccccc12)C(=O)N[C@@H](CC(C)C)C(=O)N[C@@H](CCC(=O)O)C(=O)N[C@@H](CCCNC(=N)N)C(=O)NCC(=O)NCC(N)=O)C(C)C)C(=O)O` [g722] are 1670 nM, 11.1 nM and 0.426 nM.
Take `CCCCCCCCCCCCCCCC(=O)N[C@@H](CCC(=O)NCCCC[C@H](NC(=O)[C@H](CO)NC(=O)[C@H](CC(=O)O)NC(=O)[C@H](CC(C)C)NC(=O)[C@H](Cc1ccc(O)cc1)NC(=O)[C@H](CCC(=O)O)NC(=O)[C@H](CO)NC(=O)[C@H](Cc1ccc(O)cc1)NC(=O)[C@H](CC(=O)O)NC(=O)[C@H](CO)NC(=O)[C@@H](NC(=O)[C@H](Cc1ccccc1)NC(=O)[C@@H](NC(=O)CNC(=O)[C@H](CCC(N)=O)NC(=O)CNC(=O)[C@@H](N)Cc1c[nH]cn1)[C@@H](C)O)[C@@H](C)O)C(=O)N[C@@H](CCCNC(=N)N)C(=O)N[C@@H](C)C(=O)N[C@@H](CCCNC(=N)N)C(=O)N[C@@H](CC(=O)O)C(=O)N[C@@H](Cc1ccccc1)C(=O)N[C@H](C(=O)N[C@@H](CCC(=O)O)C(=O)N[C@@H](Cc1c[nH]c2ccccc12)C(=O)N[C@@H](CC(C)C)C(=O)N[C@@H](CCC(=O)O)C(=O)N[C@@H](CCCNC(=N)N)C(=O)NCC(=O)NCC(N)=O)C(C)C)C(=O)O` [g723]: the EC50 on Human GIPr was 761 nM; at Human GlucR it was 8.95 nM; on Human GLP1R, 0.33 nM.
Taken in the same sequence, the figures for `CCCCCCCCCCCCCCCC(=O)NCCCCCC(=O)NCCCC[C@H](NC(=O)[C@H](CO)NC(=O)[C@H](CC(=O)O)NC(=O)[C@H](CC(C)C)NC(=O)[C@H](Cc1ccc(O)cc1)NC(=O)[C@H](CCC(=O)O)NC(=O)[C@H](CO)NC(=O)[C@H](Cc1ccc(O)cc1)NC(=O)[C@H](CC(=O)O)NC(=O)[C@H](CO)NC(=O)[C@@H](NC(=O)[C@H](Cc1ccccc1)NC(=O)[C@@H](NC(=O)CNC(=O)[C@H](CCC(=O)O)NC(=O)CNC(=O)[C@@H](N)Cc1c[nH]cn1)[C@@H](C)O)[C@@H](C)O)C(=O)N[C@@H](CCCNC(=N)N)C(=O)N[C@@H](C)C(=O)N[C@@H](CCCNC(=N)N)C(=O)N[C@@H](CC(=O)O)C(=O)N[C@@H](Cc1ccccc1)C(=O)N[C@H](C(=O)N[C@@H](C)C(=O)N[C@@H](Cc1c[nH]c2ccccc12)C(=O)N[C@@H](CC(C)C)C(=O)N[C@@H](CCC(=O)O)C(=O)N[C@@H](CCCNC(=N)N)C(=O)NCC(=O)NCC(N)=O)C(C)C` [g724] (H-HGEGTFTSDYSEYLDSK([Ahx-Palmitoyl])RARDFVAWLERGG-NH2; N-terminus assumed) were 933 nM, 30.9 nM and 0.019 nM.

These data come from patent US20200354426A1 (MEDIMMUNE LIMITED, priority 2016, published 2020).
